Measurements published in patent publication US20110052740A1, “Skin Circulation-Improving Agent And Skin Temperature-Elevating Agent” (SHISEIDO COMPANY, LTD., priority 2008, published 2011).

Columns and labels:
[1] = Study of effect on skin blood circulation (laser Doppler flow-meter, smelling of test sample); assay type: in vivo, human; settings: general statement of the inventors' findings; no data shown for substances other than the Arabian jasmine extract
Procedure: The skin blood circulation rate of fingers was measured by use of the laser Doppler flow-meter (ADVANCE LASER FLOW-METER ALF21), and the effect of the Arabian jasmine extract on the skin blood circulation was evaluated.
Six persons (men and women) were employed as subjects, and the test was made in a constant temperature and humidity room having been adjusted at a temperature of 22° C. and a humidity of 45%. Each of the subjects was seated on an easy chair and allowed to take a rest for 30 minutes. Thereafter, a probe of the flow-meter was fitted to the inner surface side of the third finger of the right hand of the subject, and a change in blood circulation rate with the passage of time was recorded. One sequence of measurement tests was composed of (A) a rest for three minutes, (B) attaching of an odorless cotton piece under the nose for three minutes, (C) a rest for three minutes, (D) attaching of a test sample-impregnated cotton piece under the nose for three minutes, (E) a rest for three minutes, (F) attaching of an odorless cotton piece under the nose for three minutes, and (G) a rest for three minutes. The blood circulation rate was measured successively during the one sequence. […]

[2] = Study of effect on skin temperature (smelling of test substance, body temperature logger); assay type: in vivo, human; settings: for skin temperatures of the fingers: one person, vapor inhaled 3 min from impregnated cotton piece under the nose, 25° C., humidity 50%, FIG. 1; for skin temperatures of the cheeks / skin temperatures of the toes: smell taken with the nose, not illustrated by data
Procedure: The skin temperature of fingers was measured by use of 8ch Body Temperature Logger (supplied by Nikkiso-Therm Co., Ltd.), and a change in skin temperature due to smelling of a test substance was investigated. The effect on the peripheral skin temperature was thus studied. A solvent extract of a common jasmine (Jasminum officinale) belonging to the Jasminum genus in the Oleaceae family was used as a control, and the evaluation was made in the same manner.
A person was employed as a subject, and the test was made in a constant temperature and humidity room at a temperature of 25° C. and a humidity of 50%.
The subject was seated on an easy chair and allowed to take a rest for 30 minutes. […] The change in peripheral skin temperature was evaluated by use of a value (T value) obtained by subtracting a mean value of the skin temperatures at the two sites of the chest from the mean value of the skin temperatures at the two fingertip sites.
One sequence of measurement tests was composed of (A) a rest for three minutes, (B) attaching of an odorless cotton piece under the nose for three minutes, (C) a rest for three minutes, (D) attaching of a test sample-impregnated cotton piece under the nose for three minutes, (E) a rest for three minutes, (F) attaching of an odorless cotton piece under the nose for three minutes, and (G) a rest for three minutes. The skin temperature was measured successively during the one sequence, and the T values were calculated.
The T values obtained at the times of (B) and (F), at each of which the odorless cotton piece was attached, were taken as the controls and were compared with the T value obtained at the time of (D), at which the vapor of the test sample was inhaled. The effect of each substance on the skin temperature was thus investigated. Specifically, the formula shown below was utilized.
Skin temperature change (° C.)=T value (D)−(mean value of T value (B) and T value (F))

sympathetic nerve = test: Sympathetic nerve suppressing effect (confirmed by the inventors, no method given); settings: statement without data

SMILES	rate of the skin blood circulation (summary of findings) [1]	skin temperatures of the fingers [2]	skin temperatures of the cheeks [2]	skin temperatures of the toes [2]	sympathetic nerve suppressing effect (sympathetic nerve)
CCCCC1OC(=O)CC1C (stereo not shown) [3-methyloctano-4-lactone]	increases	increased	could be increased	could be increased	has a sympathetic nerve suppressing effect
CC(=O)OC1CC2CCC1(C)C2(C)C (stereo not shown) [bornyl acetate]	increases	increased	could be increased	could be increased	has a sympathetic nerve suppressing effect
